Experiments:
COX-2 = target: T1, COX-2 (Mus musculus, UniProt Q05769); assay: COX-2 assay: PGE2 release (RIA) from LPS-stimulated mouse peritoneal macrophages; format: cell-based, mice; settings: LPS 1 mg/L 9 h, PGE2 by RIA
T1 construct: endogenous in cells; host or cells: thioglycollate-elicited peritoneal macrophages of male C57BL-6J mice, stimulated with LPS
T1 sequence (Q05769 18-604): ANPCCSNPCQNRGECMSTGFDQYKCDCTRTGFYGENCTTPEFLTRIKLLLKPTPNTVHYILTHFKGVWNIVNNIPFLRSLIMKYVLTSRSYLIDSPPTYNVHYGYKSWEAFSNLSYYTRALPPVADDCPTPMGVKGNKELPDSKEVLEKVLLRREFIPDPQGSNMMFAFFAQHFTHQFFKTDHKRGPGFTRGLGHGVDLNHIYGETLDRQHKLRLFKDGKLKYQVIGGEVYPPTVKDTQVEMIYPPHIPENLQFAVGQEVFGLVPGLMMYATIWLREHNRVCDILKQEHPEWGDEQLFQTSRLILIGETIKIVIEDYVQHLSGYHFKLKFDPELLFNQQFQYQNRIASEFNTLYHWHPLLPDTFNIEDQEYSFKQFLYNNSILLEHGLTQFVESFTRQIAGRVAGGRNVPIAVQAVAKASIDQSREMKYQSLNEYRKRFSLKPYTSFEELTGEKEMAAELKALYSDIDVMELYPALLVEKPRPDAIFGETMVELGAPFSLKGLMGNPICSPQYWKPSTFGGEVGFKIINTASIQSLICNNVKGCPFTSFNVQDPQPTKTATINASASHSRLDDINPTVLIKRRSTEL
Protocol: Cell culture: Adherent macrophages were harvested from the peritoneal cells of male mice (C57BL-6J, Level 2, from Experiment Animal Center, Academy of Military Medical Science) 3 d after the injection (ip) of brewer thioglycollate medium (5 mL/100 g body weight). […] Cell viability was examined by trypan blue dye exclusion. All incubation procedures were performed with 5% CO2 in humidified air at 37° C.
COX-2 assay: Macrophages were incubated with test compound at different concentrations or solvent (Me2SO) for 1 h and were stimulated with LPS 1 mg/L for 9 h. The amount of PGE2 in supernatants was measured by RIA. The inhibitory ratio was calculated using the same Formula as in COX-1 assay section. Cs, Ct, Cc refer to PGE2 concentration in supernatants of LPS, test compound, and control groups, respectively.
Statistical analysis: Data were expressed as the mean±SD of more than three independent experiments. Dose-inhibitory effect curves were fit through “uphill dose response curves, variable slope” using Prism, GraphPad (version 3.00): [formula]

[1] = system: carrageenan-induced foot pad edema; assay: Rat carrageenan-induced foot pad edema assay; format: in vivo; settings: 10 mg/kg oral
Protocol: Male Sprgue-Dawley rats (190-220 g ) were fasted with free access to water at least 16 h prior experiments. The rats were dosed orally with a 1 ml suspension of test compound in vehicle (0.5% methyl cellulose and 0.025% Tween-20) or with vehicle alone. One hour later a subplantar injection of 0.1 ml of 1% solution of carageenan in 0.9% strile saline was administered to the right hind foot pad. Paw volume was measured with a displacement plethysmometer 2, 3, and 4 h after carrageenan injection.

| Compound | IC50 (COX-2) [nM] | inhibitory percentage of edema ([1]; 2 h after carrageenan) [%] | inhibitory percentage of edema ([1]; 3 h after carrageenan) [%] | inhibitory percentage of edema ([1]; 4 h after carrageenan) [%] | edema (paw volume increase) ([1]; 2 h after carrageenan) [%] | edema (paw volume increase) ([1]; 3 h after carrageenan) [%] | edema (paw volume increase) ([1]; 4 h after carrageenan) [%] | melting point [°C] |
| --- | --- | --- | --- | --- | --- | --- | --- | --- |
| 2-(4-methylsulfonylphenyl)-3-phenyl-5-methylindole [Example 83] | 0.278 | 46.1 | 47.1 | 46.1 |  |  |  |  |
| Cc1ccc(-c2cc(C(F)(F)F)nn2-c2ccc(S(N)(=O)=O)cc2)cc1 [Celecoxib, reference compound] |  |  | 51.6 | 48.0 | 31.1 ± 7.87 | 53.2 ± 12.6 | 48.8 ± 8.11 |  |
| CS(=O)(=O)c1ccc(-c2[nH]c3ccccc3c2-c2ccccc2)cc1 [Example 59, 2-(4-methylsulfonylphenyl)-3-phenylindole] | 3.86 |  | 55.8 | 56.1 | 40.8 ± 15.8 | 48.6 ± 14 | 41.2 ± 17.4 | 221 to 222 |
| NS(=O)(=O)c1ccc(-c2[nH]c3ccccc3c2-c2ccccc2)cc1 [Example 60, 2-(4-aminosulfonylphenyl)-3-phenylindole] | 0.161 |  | 48.3 | 53.9 | 32.5 ± 9.45 | 56.9 ± 16.4 | 43.2 ± 13.9 | 231 to 232 |
| CS(=O)(=O)c1ccc(-c2[nH]c3ccccc3c2-c2ccc(Cl)cc2)cc1 [Example 61, 2-(4-methylsulfonylphenyl)-3-(4-chlorophenyl)indole] | 146 |  | 51.1 | 50.4 | 14.6 ± 7.8 | 30.6 ± 10 | 25.7 ± 10.1 | 198.5 to 200.5 |
| NS(=O)(=O)c1ccc(-c2[nH]c3ccccc3c2-c2ccc(Cl)cc2)cc1 [Example 62, 2-(4-aminosulfonylphenyl)-3-(4-chlorophenyl)indole] | 33.5 |  | 24.2 | 25.6 | 16.6 ± 6.5 | 41.3 ± 13.7 | 38.6 ± 14.9 | 298 to 300 |
| CS(=O)(=O)c1ccc(-c2[nH]c3ccccc3c2-c2ccc(Br)cc2)cc1 [Example 63, 2-(4-methylsulfonylphenyl)-3-(4-bromophenyl)indole] | 0.369 |  | 11.6 | 16.1 | 27.1 ± 10.1 | 55.3 ± 17 | 43.6 ± 9.5 | 225 to 226 |
| Cc1ccc(-c2c(-c3ccc(S(N)(=O)=O)cc3)[nH]c3ccccc23)cc1 [Example 66, 2-(4-aminosulfonylphenyl)-3-(4-methylphenyl)indole] | 0.0684 |  |  |  |  |  |  | 293 to 295 |
| Cc1ccc(-c2c(-c3ccc(S(N)(=O)=O)cc3)[nH]c3ccccc23)cc1C [Example 68, 2-(4-aminosulfonylphenyl)-3-(3,4-dimethylphenyl)indole] | 1.46 |  |  |  |  |  |  | 251 to 253 |
| COc1ccc(-c2c(-c3ccc(S(N)(=O)=O)cc3)[nH]c3ccccc23)cc1 [Example 70, 2-(4-aminosulfonylphenyl)-3-(4-methoxyphenyl)indole] |  |  | 44.7 | 38.5 | 21.9 ± 11.8 | 34.6 ± 10.4 | 31.9 ± 11.9 |  |
| CS(=O)(=O)c1ccc(-c2[nH]c3ccccc3c2-c2ccc(F)cc2)cc1 [Example 71, 2-(4-methylsulfonylphenyl)-3-(4-fluorophenyl)indole] |  |  | 11.1 | 18.4 | 44 ± 21.1 | 54.4 ± 9.8 | 49.1 ± 19 | 224 to 226 |
| CS(=O)(=O)c1ccc(-c2[nH]c3ccc(Cl)cc3c2-c2ccc(Cl)cc2)cc1 [Example 73, 2-(4-methylsulfonylphenyl)-3-(4-chlorophenyl)-5-chloroindole] | 85.1 |  |  |  |  |  |  | 281 to 283 |
| NS(=O)(=O)c1ccc(-c2[nH]c3ccc(Cl)cc3c2-c2ccc(Cl)cc2)cc1 [Example 74, 2-(4-aminosulfonylphenyl)-3-(4-chlorophenyl)-5-chloroindole] | 0.541 |  |  |  |  |  |  | 245 to 247 |
| CS(=O)(=O)c1ccc(-c2[nH]c3ccc(Cl)cc3c2-c2ccccc2)cc1 [Example 76, 2-(4-methylsulfonylphenyl)-3-phenyl-5-chloroindole] |  | 36.9 | 52.8 | 53.2 | 45 ± 17.9 | 46 ± 15.4 | 37.7 ± 15.6 | 281 to 283 |
| NS(=O)(=O)c1ccc(-c2[nH]c3ccc(Cl)cc3c2-c2ccccc2Cl)cc1 [Example 77, 2-(4-aminosulfonylphenyl)-3-(2-chlorophenyl) -5-chloro indole] | 100 |  |  |  |  |  |  |  |
| CS(=O)(=O)c1ccc(-c2[nH]c3ccc(Cl)cc3c2-c2ccccc2Cl)cc1 [Example 78, 2-(4-methylsulfonylphenyl)-3-(2-chlorophenyl) -5-chloro indole] | 10 |  |  |  |  |  |  | 300 to 301.5 |
| NS(=O)(=O)c1ccc(-c2[nH]c3ccc(Br)cc3c2-c2ccccc2)cc1 [Example 81, 2-(4-aminosulfonylphenyl)-3-phenyl-5-bromoindole] | 5 |  |  |  |  |  |  | 310 to 312 |
| CS(=O)(=O)c1ccc(-c2[nH]c3ccc(Br)cc3c2-c2ccccc2)cc1 [Example 82, 2-(4-methylsulfonylphenyl)-3-phenyl-5-bromoindole] | 1.41 |  |  |  |  |  |  | 262 to 264 |
| NS(=O)(=O)c1ccc(-c2[nH]c3ccc(Cl)cc3c2-c2cccc(Cl)c2)cc1 [Example 85, 2-(4-aminosulfonylphenyl)-3-(3-chlorophenyl)-5-chloroindole] |  | 19.8 | 36.1 | 23.4 | 57.2 ± 13.6 | 62.3 ± 7.2 | 61.7 ± 8.8 |  |
| CS(=O)(=O)c1ccc(-c2[nH]c3ccc(Cl)cc3c2-c2cccc(Cl)c2)cc1 [Example 86, 2-(4-methylsulfonylphenyl)-3-(3-chlorophenyl)-5-chloroindole] | 0.801 |  |  |  |  |  |  | 254 to 257 |
| CS(=O)(=O)c1ccc(-c2[nH]c3ccc(Cl)cc3c2-c2ccc(S(C)(=O)=O)cc2)cc1 [Example 88, 2-(4-methylsulfonylphenyl)-3-(4-methylsulfonylphenyl)-5-chloroindole] | 1.48 |  |  |  |  |  |  | 173 to 175 |
| Cc1ccc(-c2[nH]c3ccc(Cl)cc3c2-c2ccc(S(C)(=O)=O)cc2)cc1 [Example 91, 2-(4-methylphenyl)-3-(4-methylsulfonylphenyl)-5-chloroindole] | 1.68 |  |  |  |  |  |  | 238 to 240 |
| CS(=O)(=O)c1ccc(-c2c(-c3ccc(O)cc3)[nH]c3ccc(Cl)cc23)cc1 [Example 95, 2-(4-hydroxyphenyl)-3-(4-methylsulfonylphenyl)-5-chloroindole] |  |  |  |  |  |  |  | 271 to 273 |
| NS(=O)(=O)c1ccc(-c2[nH]c3ccccc3c2-c2ccc(O)cc2)cc1 [Example 96, 2-(4-aminosulfonylphenyl)-3-(4-hydroxyphenyl)indole] | 6.44 |  |  |  |  |  |  | 241 to 243 |
| CC(=O)NS(=O)(=O)c1ccc(-c2[nH]c3ccccc3c2-c2ccccc2)cc1 [Example 97, 2-(N-acetamide-sulfonylphenyl)-3-phenylindole] | 0.184 |  |  |  |  |  |  | 221 to 222 |
| CS(=O)(=O)c1ccc(C2=C(c3ccccc3)C(=O)OC2)cc1 [Rofecoxib, reference compound] |  | 29.5 | 51.6 | 52.6 | 50.3 ± 5.1 | 47.2 ± 2.4 | 38.2 ± 6.7 |  |
